The term IC50 denotes the concentration at which inhibition is half-maximal.

We go through 16 molecules from article PMC2769143, “Variations in IC50 Values with Purity of Mushroom Tyrosinase” (International Journal of Molecular Sciences, 2009).

Assay [1] addresses commercial mushroom tyrosinase (MT) (Agaricus bisporus, UniProt C7FF04). Kind of assay: DOPA oxidation (dopachrome, 475 nm) assay with commercial MT. Type of assay: biochemical. The settings on record: for IC50: read-out: IC50 Commer. MT. The method, then:
Commercial mushroom tyrosinase was purchased from Worthington Biochemical Corp. (Lakewood, NJ, USA). Substrates and inhibitors were obtained from Sigma-Aldrich (St. Louis, MO, USA). Anisaldehyde was obtained form J.T. Baker Chemical Co. (Phillipsburg, NJ, USA). Dimethyl sulfoxide (DMSO) was reagent grade from Sigma-Aldrich (St. Louis, MO, USA).
(§1) White button mushrooms were purchased from local stores and blended in 100 mM sodium phosphate (pH 6.0) containing 1 mM EDTA, 1 mM PMSF, 5 mM ascorbic acid and 1 M sucrose. The homogenates were filtered and stored at −15 °C in small aliquots. Commercial mushroom tyrosinase. Mushroom tyrosinase was dissolved in the above buffer without ascorbic acid at 2 mg dry weight/mL and stored at 5 °C in small aliquots.
(§2) Each one mL assay contained a final concentration of 100 mM sodium phosphate (pH 6.5) and 2 mM DOPA. Crude, commercial or partially purified tyrosinase was added to initiate the reaction. […] Rates were determined from the linear portion of the absorbance vs. time curves. Crude enzyme was use at a concentration of 0.1 units (8.4 μg protein) per mL in the assay and assayed in the presence of 0.1% SDS. Commercial tyrosinase was used at a concentration of 0.038 units (3.3 μg protein) per mL in the assay. The purified enzyme was used at a concentration of 0.0067 units (0.58 μg protein) per mL in the assay.
(§3) Various amounts of inhibitors were added into assays to determine a range of inhibitors needed to encompass the IC50 value. Then assays were repeated within this range of inhibitor concentrations. Rates were determined as above. […] For the crude and commercial MT, experiments were repeated at least twice and the average IC50 value reported. Because of the limited amount of purified tyrosinase, not all experiments could be repeated twice. In experiments requiring DMSO to dissolve the inhibitor, control assays contained the assay mixture with DMSO but minus inhibitor. Final DMSO concentrations were 5% or less in the assays.

In assay [2] the target is crude mushroom tyrosinase (MT) extract. Nature of the assay: DOPA oxidation (dopachrome, 475 nm) assay with crude MT extract, with 0.1% SDS. Type of assay: biochemical, White button mushrooms. The method, then: as §1, §2, §3
Assay [3] addresses purified mushroom tyrosinase (MT) (Agaricus bisporus, UniProt C7FF04). Nature of the assay: DOPA oxidation (dopachrome, 475 nm) assay with partially purified commercial MT. Type of assay: biochemical. The method, then:
as §2, §3

Assay [4] addresses mushroom tyrosinase. The settings on record: cited from earlier work.
The test system of assay [5] is mushroom tyrosinase (crude, commercial and purified MT). Kind of assay: DOPA oxidation assay, statements pooled over crude, commercial and purified MT. Type of assay: biochemical. The method, then: Each one mL assay contained a final concentration of 100 mM sodium phosphate (pH 6.5) and 2 mM DOPA. Crude, commercial or partially purified tyrosinase was added to initiate the reaction. Oxidation of DOPA into dopachrome was monitored at 475 nm. One unit of activity was defined as 1 μmole dopachrome formed per min per ml enzyme using an extinction coefficient of 3600 M^−1 cm^−1. Rates were determined from the linear portion of the absorbance vs. time curves. Crude enzyme was use at a concentration of 0.1 units (8.4 μg protein) per mL in the assay and assayed in the presence of 0.1% SDS. Commercial tyrosinase was used at a concentration of 0.038 units (3.3 μg protein) per mL in the assay. The purified enzyme was used at a concentration of 0.0067 units (0.58 μg protein) per mL in the assay.
Various amounts of inhibitors were added into assays to determine a range of inhibitors needed to encompass the IC50 value. Then assays were repeated within this range of inhibitor concentrations. Rates were determined as above. […] The concentration of inhibitor needed to inhibit 50% of the tyrosinase activity was extrapolated from % activity vs. [inhibitor] curves. For some inhibitors, we also used Statistical Data Analysis Software (SDAS, version 2008A) using an exponential equation to obtain a best fit curve and then to calculate IC50 values. For the crude and commercial MT, experiments were repeated at least twice and the average IC50 value reported. Because of the limited amount of purified tyrosinase, not all experiments could be repeated twice. In experiments requiring DMSO to dissolve the inhibitor, control assays contained the assay mixture with DMSO but minus inhibitor. Final DMSO concentrations were 5% or less in the assays.

Like-named read-outs stand apart in the source and are kept apart here. Some results are limits rather than exact numbers.

Chain of commercial mushroom tyrosinase (MT) (C7FF04 1-392): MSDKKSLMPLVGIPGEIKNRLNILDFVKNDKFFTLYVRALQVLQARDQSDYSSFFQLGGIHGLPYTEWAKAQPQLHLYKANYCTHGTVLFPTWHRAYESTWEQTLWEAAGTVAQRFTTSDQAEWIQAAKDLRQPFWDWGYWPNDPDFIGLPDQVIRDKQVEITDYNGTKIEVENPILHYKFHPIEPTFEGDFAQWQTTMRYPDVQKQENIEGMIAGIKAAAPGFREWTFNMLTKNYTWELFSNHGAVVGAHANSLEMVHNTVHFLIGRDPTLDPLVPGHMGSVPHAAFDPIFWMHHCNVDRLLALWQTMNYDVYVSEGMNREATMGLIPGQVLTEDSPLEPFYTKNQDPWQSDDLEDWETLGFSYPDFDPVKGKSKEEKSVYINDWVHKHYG
Chain of commercial mushroom tyrosinase (MT) (G1K3P4 entry or part of it, further chain): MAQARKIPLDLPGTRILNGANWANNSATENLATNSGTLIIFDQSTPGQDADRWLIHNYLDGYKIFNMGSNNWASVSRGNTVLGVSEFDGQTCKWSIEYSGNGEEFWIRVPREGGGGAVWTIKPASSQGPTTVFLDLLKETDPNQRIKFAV
Chain of purified mushroom tyrosinase (MT) (C7FF04 1-392): as the sequence (C7FF04 1-392) above
Chain of purified mushroom tyrosinase (MT) (G1K3P4 entry or part of it, further chain): as the sequence (G1K3P4 entry or part of it, further chain) above

Consider 4,4’-dihydroxy-biphenyl [biphenol], for which the IC50 was 10 µM in assay [1] (2 mM DOPA, pH 6.5); 50 µM in assay [2] (2 mM DOPA, pH 6.5, 0.1% SDS); 67 µM in assay [3] (2 mM DOPA, pH 6.5); 1.9 µM in assay [4] (tyrosine as substrate, read-out: Reported IC50 Values). Also, the “Concentration beyond which purified MT activity increases” value in assay [3] (2 mM DOPA) is more than 100 µM.

Turning to `CCCCCCc1ccc(O)cc1O` [4-HR, 4-hexylresorcinol], the IC50 in assay [2] (2 mM DOPA, pH 6.5, 0.1% SDS) is 5.8 µM; in assay [4] (read-out: Reported IC50 Values), 0.85 µM.

With `N.N.S.S.[S]=[Mo]=[S]` [ATTM, ammonium tetrathiomolybdate], the IC50 is 3.3 µM in assay [1] (2 mM DOPA, pH 6.5); 3.4 µM in assay [2] (2 mM DOPA, pH 6.5, 0.1% SDS); 2 µM in assay [4] (read-out: Reported IC50 Values).

Take `[Cl-].[Na+]` [NaCl]: the concentration for half-maximal inhibition (IC50) in assay [2] (2 mM DOPA, pH 6.5, 0.1% SDS) was 65000 µM; in assay [4] (DOPA as substrate, read-out: Reported IC50 Values), 25000 µM.

As for `O=S(=O)([O-])[O-].[Zn+2]` [ZnSO4], the “Inhibition of commercial MT” value in assay [1] (at 1 mM) is recorded as “none@1 mM”. Besides, the “Inhibition of crude MT” value in assay [2] (at 1 mM) is “none@1 mM”. In addition, in assay [3] (at 1 mM), the “Inhibition of purified MT” value is reported as “none@1 mM”. Further, the “Inhibition of MT” value in assay [5] (concentrations up to 1 mM) is reported as “no inhibition”. Also, the IC50 in assay [4] (assay coupling DOPA oxidation to thymol blue coloration, read-out: Reported IC50 Values) is 50 µM.

For `COc1ccc(C=O)cc1` [anisaldehyde], the IC50 is 1000 µM in assay [2] (2 mM DOPA, pH 6.5, 0.1% SDS); 1000 to 1800 µM in assay [5] (2 mM DOPA, read-out: IC50, range between crude, commercial and purified MT); 160 µM in assay [4] (read-out: Reported IC50 Values).

Regarding `COc1ccc(C(=O)O)cc1` [anisic acid], in assay [4] (read-out: Reported IC50 value), the IC50 is 680 µM.

As to `CSC` [dimethyl sulfide], the “Inhibition of commercial MT” value in assay [1] (to 500 μM) is “NI to 500 μM”. Besides, in assay [2] (to 500 μM), the “Inhibition of crude MT” value was “NI to 500 μM”. Besides, the “Inhibition of purified MT” value in assay [3] (to 500 μM) is “NI to 500 μM”. Moreover, in assay [5] (up to 500 μM, any of the MT samples), the “Inhibition of MT” value is listed as “Little to no inhibition”.

Turning to `CS(C)(=O)=O` [dimethyl sulfone], in assay [1] (to 2 mM), the “Inhibition of commercial MT” value is on record as “NI to 2 mM”. Moreover, the “Inhibition of crude MT” value in assay [2] (to 2 mM) is recorded as “NI to 2 mM”. In assay [3] (to 2 mM), the “Inhibition of purified MT” value is recorded as “NI to 2 mM”. Also, the Inhibition of tyrosinase entry in assay [5] (up to 2 mM) is on record as “relatively little inhibition”.

Molecule `O=c1ccc2cc(O)c(O)cc2o1` [esculetin] returned an IC50 in assay [2] (2 mM DOPA, pH 6.5, 0.1% SDS) of 70 µM.

With `Oc1ccc(O)cc1` [hydroquinone], the “Effect on commercial MT activity” value in assay [1] is “activates ^e”. Also, in assay [2] (2 mM DOPA), the “Concentration up to which crude MT is activated” value is not above 100 µM and the “Effect on crude MT activity” value is given as “activates ^d”. Also, the “Effect on purified MT activity” value in assay [3] was “activates ^f”. In assay [4] (read-out: Reported IC50 Values), the IC50 was 26 µM.

In assay [2] (2 mM DOPA, pH 6.5, 0.1% SDS), `O=c1cc(CO)occ1O` [kojic acid] displayed an IC50 of 36 µM.

For the molecule `Cn1cc[nH]c1=S` [methimazole], the IC50 in assay [2] (2 mM DOPA, pH 6.5, 0.1% SDS) is 46 µM; in assay [4] (read-out: Reported IC50 Values), 200 µM.

In the case of `O=C(CCc1ccc(O)cc1)c1c(O)cc(O)cc1O[C@@H]1O[C@H](CO)[C@@H](O)[C@H](O)[C@H]1O` [phloridzin], the 50% inhibitory concentration (IC50) in assay [2] (2 mM DOPA, pH 6.5, 0.1% SDS) was 625 µM; in assay [4] (read-out: Reported IC50 Values) it was 110 µM.

As to `O=c1cccccc1O` [tropolone], the IC50 in assay [2] (2 mM DOPA, pH 6.5, 0.1% SDS) is 0.39 µM; in assay [4] (read-out: Reported IC50 Values) it was 0.4 µM.

As to lysozyme, in assay [1] (2 mM DOPA, pH 6.5), the “IC50 Commer. MT” value is on record as more than 20 mg/mL ^h. Further, in assay [2] (2 mM DOPA, pH 6.5, 0.1% SDS), the “IC50 Crude MT” value is more than 10 mg/mL ^g. Further, in assay [3] (2 mM DOPA, pH 6.5), the “IC50 Purified MT” value is on record as more than 20 mg/mL ^i. Moreover, the “Reported inhibition of MT” value in assay [4] (MT and lysozyme incubated for one hour before assaying) was 30%; in assay [4] (mixing MT with lysozyme just before assaying), 8%. In assay [4], the “Reported IC50 value” was 4.6 µg/mL. The 50% inhibitory concentration (IC50) in assay [4] (read-out: Reported IC50 Values) was 0.32 µM.
